Earlier results as cited in patent US10265413B2, “High molecular weight biodegradable gelatin-doxorubicin conjugate” (priority 2014, dated 2019).

Conditions: cumulative doses

## COc1cccc2c1C(=O)c1c(O)c3c(c(O)c1C2=O)C[C@@](O)(C(=O)CO)C[C@@H]3O[C@H]1C[C@H](N)[C@H](O)[C@H](C)O1 [DOX, (7S,9S)-7-[(2R,4S,5S,6S)-4-amino-5-hydroxy-6-methyloxan-2-yl]oxy-6,9,11-trihydroxy-9-(2-hydroxyacetyl)-4-methoxy-8,10-dihydro-7H-tetracene-5,12-dione]
  cumulative dose above which irreversible cardiomyopathy occurs: > 550 mg/m^2
